Where two headings read alike, the source gives them in different places.
Columns and labels:
human RAD51 = target: T1, human RAD51 (Homo sapiens, UniProt Q06609); test: D-loop assay for RAD51; type: biochemical; conditions: B02 derivatives 50 μM
T1 sequence (Q06609 2-339 limits assumed): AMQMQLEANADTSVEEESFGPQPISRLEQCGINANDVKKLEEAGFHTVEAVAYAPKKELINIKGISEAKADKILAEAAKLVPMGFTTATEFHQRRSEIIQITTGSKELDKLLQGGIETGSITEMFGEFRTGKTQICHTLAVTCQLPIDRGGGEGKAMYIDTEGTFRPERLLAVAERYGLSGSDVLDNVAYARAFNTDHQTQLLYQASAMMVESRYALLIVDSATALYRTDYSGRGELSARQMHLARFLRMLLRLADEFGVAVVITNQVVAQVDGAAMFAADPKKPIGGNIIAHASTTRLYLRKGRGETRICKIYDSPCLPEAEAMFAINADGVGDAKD

RecA = RecA (Escherichia coli, UniProt P0A7G6)
human RAD54 = target: T2, human RAD54 (Homo sapiens, UniProt Q92698); test: DNA branch migration assay for RAD54; type: biochemical; conditions: concentrations from 0 to 200 μM
T2 sequence (Q92698 1-747): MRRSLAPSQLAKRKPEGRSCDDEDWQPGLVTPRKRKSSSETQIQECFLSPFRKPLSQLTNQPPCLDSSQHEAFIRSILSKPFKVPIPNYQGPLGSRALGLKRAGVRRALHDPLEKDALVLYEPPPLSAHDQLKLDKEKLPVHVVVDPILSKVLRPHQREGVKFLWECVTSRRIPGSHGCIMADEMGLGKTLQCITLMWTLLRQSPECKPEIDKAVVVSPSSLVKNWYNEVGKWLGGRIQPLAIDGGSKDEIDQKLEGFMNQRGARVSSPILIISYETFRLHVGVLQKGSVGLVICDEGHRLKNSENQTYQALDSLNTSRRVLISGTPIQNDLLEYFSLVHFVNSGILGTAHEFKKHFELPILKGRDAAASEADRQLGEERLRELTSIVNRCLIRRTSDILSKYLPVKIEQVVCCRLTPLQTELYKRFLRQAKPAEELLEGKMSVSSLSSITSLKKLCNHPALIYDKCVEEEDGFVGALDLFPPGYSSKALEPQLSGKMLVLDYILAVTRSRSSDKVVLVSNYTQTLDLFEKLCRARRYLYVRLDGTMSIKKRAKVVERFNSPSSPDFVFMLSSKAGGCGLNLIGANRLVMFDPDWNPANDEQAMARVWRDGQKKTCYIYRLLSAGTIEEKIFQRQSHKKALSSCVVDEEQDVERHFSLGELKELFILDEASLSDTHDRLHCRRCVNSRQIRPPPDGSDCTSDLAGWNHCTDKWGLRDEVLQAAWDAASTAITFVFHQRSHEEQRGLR

Chain of RecA (P0A7G6 2-353): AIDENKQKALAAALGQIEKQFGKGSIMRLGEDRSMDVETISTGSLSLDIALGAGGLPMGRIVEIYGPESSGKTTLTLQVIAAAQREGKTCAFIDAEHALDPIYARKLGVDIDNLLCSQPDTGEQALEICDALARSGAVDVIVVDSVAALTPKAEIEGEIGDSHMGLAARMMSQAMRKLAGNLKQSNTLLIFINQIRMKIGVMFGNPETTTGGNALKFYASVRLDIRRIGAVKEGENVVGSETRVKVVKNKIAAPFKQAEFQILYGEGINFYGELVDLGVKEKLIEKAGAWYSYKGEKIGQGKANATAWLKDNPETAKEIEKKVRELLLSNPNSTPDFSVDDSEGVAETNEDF

Row | Compound | inhibitory effect on DNA strand exchange activity of RAD51 (D-loop assay) (human RAD51) | inhibition of RecA DNA strand exchange (RecA; concentrations up to 100 μM) | other results
1 | CCn1c(C=Cc2cccnc2)nc2ccccc2c1=O [B02-3a] | retain the inhibitory effect | do not inhibit | –
2 | Cc1cccc(-n2c(/C=C/c3cccnc3)nc3ccccc3c2=O)c1 [B02-3b] | retain the inhibitory effect | do not inhibit | –
3 | Cc1ccc(-n2c(C=Cc3cccnc3)nc3ccccc3c2=O)cc1 [B02-3c] | eliminates the inhibition | – | –
4 | O=c1c2ccccc2nc(C=Cc2cccnc2)n1-c1ccccc1 [B02-3d] | eliminates the inhibition | – | –
5 | Cn1c(C=Cc2cccnc2)nc2ccccc2c1=O [B02-3e] | eliminates the inhibition | – | –
6 | O=c1c2ccccc2nc(/C=C/c2cccnc2)n1Cc1ccccc1 [B02] | – | – | inhibition of RAD54 branch migration activity (human RAD54): did not significantly inhibit; IC50 (RecA; read-out: IC50 for RecA, D-loop assay, RecA 1 μM): > 250 µM; inhibition of RecA DNA strand exchange (RecA; up to 250 μM of compound): did not observe any significant inhibition

— PMC3117970 (ACS chemical biology, 2011)
